These compounds were tested against human Kv1.3 (Homo sapiens, UniProt P22001) (assay: Kv1.3 patch-clamp electrophysiology (planar electrode, whole-cell, steady state current)). Details: CHO/Kv1.3 stable cell line; steady state current amplitude at end of 500 ms depolarising pulse to +40 mV; values given as ranges; read-out: IC50 (Kv1.3 ephys steady state).
Type: cell-based
Protocol: The inhibition data shown for the compounds of the list below was calculated using the steady state current amplitude at the end of the depolarising pulse in patch clamp evaluations (as described in the Pharmacology Example 2).
The human Kv1.3 construct (Kv1.3/pENTR, clone IOH61428) was purchased from Invitrogen and subcloned into pcDNA 3.2-DEST (Invitrogen). CHO-K1 cells obtained from ATCC (cat #CCL-61) were transfected with the Kv1.3/pcDNA3.2DEST construct and a stable cell line was developed through two rounds of limiting dilution under G418 selection. Positive (Kv1.3 expressing) clones were identified using electrophysiology.
CHO/Kv1.x stable cell lines were grown in a humidified atmosphere at 37 °C, 5% CO2 in T-75 flasks containing F12 Kaighn's medium supplemented with 10% fetal calf serum, 2 mM L-glutamine, 100 units/ml penicillin, 100 µg/ml streptomycin and 500 µg/ml G418 (to maintain selection). CHO/Kv1.1 and CHO/Kv1.5 cells used for patching were transferred to 33 °C for 48 hours prior to use.
Kv1.x currents were measured using a planar electrode version (Nanion Technologies GMBH) of the patch-clamp technique. Whole-cell Kv1.x current transients were evoked by 500 ms depolarising voltage pulses to +40 mV from a holding potential of -80 mV applied at 10 s intervals for Kv1.1 and Kv1.5 and at 30 s intervals for Kv1.3 to allow adequate time for recovery from inactivation. Cells were continuously bathed in a buffered saline solution containing (mM): 160 NaCl, 4.5 KCI, 2 CaCl2, 1 MgCl2, 5 glucose, 10 HEPES, pH 7.4, 290-310 mOsm.Kg^-1. The internal (pipette) solution contained (mM): 10 NaCl, 70 KF, 75 KCI, 2 MgCl2, 10 HEPES, 10 EGTA, pH 7.2, 290-310 mOsm.Kg^-1. Series resistance compensation (60-80%) was applied when the peak current amplitude exceeded 2 nA.
Compounds were initially dissolved in DMSO to 10 mM. After further dilution in DMSO, compounds were finally diluted in bath solution 1/200 (to give a final DMSO concentration of 0.5%) and applied directly to the recording chamber. Compounds were added at increasing concentrations allowing ample time for steady state block to be achieved between each concentration. Each compound was tested at 5-6 different concentrations on 2-3 cells. IC50 values can be determined by fitting the average normalised reduction of either the current integral or the steady state current amplitude at the end of the depolarising pulse obtained at each compound concentration to the Hill equation. The IC50 data reported herein is based on the steady state calculation.

Sequence of human Kv1.3 (P22001 whole entry): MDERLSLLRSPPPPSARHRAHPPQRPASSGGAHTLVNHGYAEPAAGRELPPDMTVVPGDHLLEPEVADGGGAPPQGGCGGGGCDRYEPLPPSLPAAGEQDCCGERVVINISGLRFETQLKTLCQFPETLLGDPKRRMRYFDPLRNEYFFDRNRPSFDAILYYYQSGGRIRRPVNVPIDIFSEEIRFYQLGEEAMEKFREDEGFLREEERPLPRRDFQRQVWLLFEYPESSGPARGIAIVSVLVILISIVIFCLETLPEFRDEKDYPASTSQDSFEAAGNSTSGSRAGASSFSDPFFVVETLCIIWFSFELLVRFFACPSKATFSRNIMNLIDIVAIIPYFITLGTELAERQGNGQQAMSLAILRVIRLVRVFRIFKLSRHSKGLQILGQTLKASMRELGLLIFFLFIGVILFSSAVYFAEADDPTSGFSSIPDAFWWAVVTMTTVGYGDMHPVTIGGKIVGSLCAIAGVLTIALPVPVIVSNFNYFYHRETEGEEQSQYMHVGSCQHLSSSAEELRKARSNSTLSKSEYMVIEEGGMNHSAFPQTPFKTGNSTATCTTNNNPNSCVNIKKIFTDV

Row | IC50 [nM] | SMILES
1 | 50 to 200 | CCC(c1ccc2c(c1)CC(C)O2)N(Cc1ccccn1)C(=O)CCc1ccc(F)cc1 (stereo not drawn) [Example 24, 3-(4-fluorophenyl)-N-[1-(2-methyl-2,3-dihydro-1-benzofuran-5-yl)propyl]-N-(pyridin-2-ylmethyl)propanamide]
2 | 200 to 1000 | CC(c1ccccc1)N(Cc1ccccn1)C(=O)CCc1ccc(F)cc1 (stereo not drawn) [Example 42, 3-(4-fluorophenyl)-N-(1-phenylethyl)-N-(pyridin-2-ylmethyl)propanamide]
3 | > 1000 | CC(c1ccc2c(c1)[S+]([O-])C(C)(C)O2)N(Cc1ccccn1)C(=O)CCc1cccc(C(F)(F)F)c1 (stereo not drawn) [Example 63, N-[1-(2,2-dimethyl-3-oxido-1,3-benzoxathiol-5-yl)ethyl]-N-(pyridin-2-ylmethyl)-3-[3-(trifluoromethyl)phenyl]propanamide]
4 | 50 to 200 | Cc1cnc(C)c(OCCN(C(=O)CC(C)c2ccc(F)cc2)C(C)c2ccc3c(c2)CCC3)n1 (stereo not drawn) [Example 41, N-[1-(2,3-dihydro-1H-inden-5-yl)ethyl]-3-(4-fluorophenyl)-N-[2-(3,6-dimethylpyrazin-2-yloxy)ethyl]butanamide]
5 | < 50 | COc1ccc(C(C2CC2)N(Cc2ccccn2)C(=O)CC(C)c2ccc(F)cc2)cc1 (stereo not drawn) [Example 1, N-[cyclopropyl(4-methoxyphenyl)methyl]-3-(4-fluorophenyl)-N-(pyridin-2-ylmethyl)butanamide]
6 | 50 to 200 | COCc1ccccc1C(C)N(Cc1ccccn1)C(=O)C1(S(=O)(=O)c2ccc(F)cc2)CC1 (stereo not drawn) [Example 66, 1-[(4-fluorophenyl)sulfonyl]-N-{1-[2-(methoxymethyl)phenyl]ethyl}-N-(pyridin-2-ylmethyl)cyclopropanecarboxamide]
